Structures are written as SMILES. Like-named read-outs stand apart in the source and are kept apart here. Where only a bound is given, the exact number is not on record here.

In assay [1] the test system is primary human T-cells. Put plainly: Proliferation assay after 5 days (CellTiter-Glo, CD3 stimulation; PBS counter screen). Conditions: Homo sapiens, T-cell, 120 h, CD3 stimulation; for Emax: 5 days, normalized to reference compound A1 as stimulator control = 100%, DMSO neutral control, read-out: Emax proliferation (% activation); for EC50: primary human T-cells, CellTiter-Glo after 5 days, EC50 of fitted sigmoidal curve, read-out: Tcell Proliferation CD3 EC50. The assay is classed as cell-based. The gist of the method:
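Luminescent ATP detection (CellTiter-Glo 2.0) quantified cell number 5 days after compounds went onto medium-only plates. Wells showing visible toxicity or precipitate were noted beforehand, and compounds that stimulated unstimulated cells or lowered viability were flagged.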
A general note: In ATP-based viability assays light output follows the ATP content of the culture.

Assay [2] has as its system primary human T-cells.

Turning to `COC(=O)N1CC(c2nnc(-c3cc4c(cc3F)S(=O)(=O)C[C@H](N)C(=O)N4Cc3ccc(Cl)cc3)o2)C1` [Example 172, methyl 3-[5-[(3R)-3-amino-5-[(4-chlorophenyl)methyl]-8-fluoro-1,1,4-trioxo-2,3-dihydro-1λ^6,5-benzothiazepin-7-yl]-1,3,4-oxadiazol-2-yl]azetidine-1-carboxylate], in the assay with primary human T-cells [1], the Emax amounted to 190% and the EC50 was determined as 2940 nM. The same compound had an EC50 with primary human T-cells [2] of 1670 nM.

On to `CC(=O)N1CC2CC(c3nnc(-c4cc5c(cc4F)S(=O)(=O)C[C@H](N)C(=O)N5Cc4ccc(Cl)cc4)o3)(C2)C1` [Example 173, (3R)-7-[5-(3-acetyl-3-azabicyclo[3.1.1]heptan-1-yl)-1,3,4-oxadiazol-2-yl]-3-amino-5-1[(4-chlorophenyl)methyl]-8-fluoro-1,1-dioxo-2,3-dihydro-1λ^6,5-benzothiazepin-4-one], for which, in the assay with primary human T-cells [1], the Emax came out at 89% and the EC50 was determined as 596 nM. Also, the EC50 with primary human T-cells [2] was 2180 nM.

Regarding `CS(=O)(=O)N1CC2CC(c3nnc(-c4cc5c(cc4F)S(=O)(=O)C[C@H](N)C(=O)N5Cc4ccc(Cl)cc4)o3)(C2)C1` [Example 174, (3R)-3-amino-5-[(4-chlorophenyl)methyl]-8-fluoro-7-[5-(3-methylsulfonyl-3-azabicyclo[3.1.1]heptan-1-yl)-1,3,4-oxadiazol-2-yl]-1,1-dioxo-2,3-dihydro-1λ^6,5-benzothiazepin-4-one], in the assay with primary human T-cells [1], the Emax amounted to 93% and the EC50 came out at 4460 nM. This compound also came in with an EC50 in the assay on primary human T-cells [2] of 2190 nM.

With `CC(=O)N1CC(c2nnc(-c3cc4c(cc3F)S(=O)(=O)C[C@H](N)C(=O)N4Cc3ccc(Cl)cc3)o2)C2(CC2)C1` (stereo partly drawn) [Example 175, (3R)-7-[5-(5-acetyl-5-azaspiro[2.4]heptan-7-yl)-1,3,4-oxadiazol-2-yl]-3-amino-5-[(4-chlorophenyl)methyl]-8-fluoro-1,1-dioxo-2,3-dihydro-1λ^6,5-benzothiazepin-4-one], the Emax in the assay on primary human T-cells [1] was determined as 62%. Moreover, the EC50 in the assay on primary human T-cells [1] was 7040 nM; with primary human T-cells [2], more than 10000 nM.

As for `CS(=O)(=O)N1CC(c2nnc(-c3cc4c(cc3F)S(=O)(=O)C[C@H](N)C(=O)N4Cc3ccc(Cl)cc3)o2)C2(CC2)C1` (stereo partly drawn) [Example 176, (3R)-3-amino-5-[(4-chlorophenyl)methyl]-8-fluoro-7-[5-(5-methylsulfonyl-5-azaspiro[2.4]heptan-7-yl)-1,3,4-oxadiazol-2-yl]-1,1-dioxo-2,3-dihydro-1λ^6,5-benzothiazepin-4-one], the Emax in the assay with primary human T-cells [1] was 70%. For the same compound, the EC50 in the assay on primary human T-cells [1] was 4280 nM; with primary human T-cells [2] it was 2510 nM.

On to `COC(=O)N1CC(c2nnc(-c3cc4c(cc3F)S(=O)(=O)C[C@H](N)C(=O)N4Cc3ccc(Cl)cc3)o2)C2(CC2)C1` (stereo partly drawn) [Example 177, methyl 7-[5-[(3R)-3-amino-5-[(4-chlorophenyl)methyl]-8-fluoro-1,1,4-trioxo-2,3-dihydro-1λ^6,5-benzothiazepin-7-yl]-1,3,4-oxadiazol-2-yl]-5-azaspiro[2.4]heptane-5-carboxylate], for which, in the assay on primary human T-cells [1], the Emax stood at 68% and the EC50 is 788 nM. In addition, the EC50 in the assay with primary human T-cells [2] amounted to 1440 nM.

With `COC(=O)N1CCC2CC2(c2nnc(-c3cc4c(cc3F)S(=O)(=O)C[C@H](N)C(=O)N4Cc3ccc(Cl)cc3)o2)C1` (stereo partly drawn) [Example 178, methyl 1-[5-[(3R)-3-amino-5-[(4-chlorophenyl)methyl]-8-fluoro-1,1,4-trioxo-2,3-dihydro-1λ^6,5-benzothiazepin-7-yl]-1,3,4-oxadiazol-2-yl]-3-azabicyclo[4.1.0]heptane-3-carboxylate], in the assay on primary human T-cells [1], the Emax amounted to 105% and the EC50 came out at 206 nM. The same compound returned an EC50 with primary human T-cells [2] of 333 nM.

As to `CS(=O)(=O)N1CCC2CC2(c2nnc(-c3cc4c(cc3F)S(=O)(=O)C[C@H](N)C(=O)N4Cc3ccc(Cl)cc3)o2)C1` (stereo partly drawn) [Example 179, (3R)-3-amino-5-[(4-chlorophenyl)methyl]-8-fluoro-7-[5-(3-methylsulfonyl-3-azabicyclo[4.1.0]heptan-1-yl)-1,3,4-oxadiazol-2-yl]-1,1-dioxo-2,3-dihydro-1λ^6,5-benzothiazepin-4-one], in the assay with primary human T-cells [1], the Emax is 80% and the EC50 was 1580 nM. The compound also came in with an EC50 in the assay on primary human T-cells [2] of 335 nM.

With `CC(=O)N1CCC2CC2(c2nnc(-c3cc4c(cc3F)S(=O)(=O)C[C@H](N)C(=O)N4Cc3ccc(Cl)cc3)o2)C1` (stereo partly drawn) [Example 180, (3R)-7-[5-(3-acetyl-3-azabicyclo[4.1.0]heptan-1-yl)-1,3,4-oxadiazol-2-yl]-3-amino-5-[(4-chlorophenyl)methyl]-8-fluoro-1,1-dioxo-2,3-dihydro-1λ^6,5-benzothiazepin-4-one], in the assay on primary human T-cells [1], the Emax was found to be 103% and the EC50 stood at 5710 nM. In the assay with primary human T-cells [2], the EC50 is 2380 nM.

For `CS(=O)(=O)N1CC2CC2(c2nnc(-c3cc4c(cc3F)S(=O)(=O)C[C@H](N)C(=O)N4Cc3ccc(Cl)cc3)o2)C1` (stereo partly drawn) [Example 181, (3R)-3-amino-5-[(4-chlorophenyl)methyl]-8-fluoro-7-[5-(3-methylsulfonyl-3-azabicyclo[3.1.0]hexan-1-yl)-1,3,4-oxadiazol-2-yl]-1,1-dioxo-2,3-dihydro--benzothiazepin-4-one], in the assay with primary human T-cells [1], the Emax stood at 107% and the EC50 came out at 7830 nM. This compound also yielded an EC50 with primary human T-cells [2] of 1990 nM.

In the case of `CC(=O)N1CC2CC2(c2nnc(-c3cc4c(cc3F)S(=O)(=O)C[C@H](N)C(=O)N4Cc3ccc(Cl)cc3)o2)C1` (stereo partly drawn) [Example 182, (3R)-7-[5-(3-acetyl-3-azabicyclo[3.1.0]hexan-1-yl)-1,3,4-oxadiazol-2-yl]-3-amino-5-[(4-chlorophenyl)methyl]-8-fluoro-1,1-dioxo-2,3-dihydro-1λ^6,5-benzothiazepin-4-one], the Emax in the assay with primary human T-cells [1] is 38%. For the same compound, the EC50 is more than 10000 nM with primary human T-cells [1] and 1590 nM with primary human T-cells [2].

Regarding `COC(=O)N1CC2CC2(c2nnc(-c3cc4c(cc3F)S(=O)(=O)C[C@H](N)C(=O)N4Cc3ccc(Cl)cc3)o2)C1` (stereo partly drawn) [Example 183, methyl 1-[5-[(3R)-3-amino-5-[(4-chlorophenyl)methyl]-8-fluoro-1,1,4-trioxo-2,3-dihydro-1λ^6,5-benzothiazepin-7-yl]-1,3,4-oxadiazol-2-yl]-3-azabicyclo[3.1.0]hexane-3-carboxylate], in the assay with primary human T-cells [1], the Emax amounted to 131% and the EC50 was found to be 336 nM. Besides, the EC50 in the assay on primary human T-cells [2] came out at 43 nM.

Consider `N[C@H]1CS(=O)(=O)c2cc(F)c(-c3nnc(C(F)(F)C(F)(F)F)o3)cc2N(Cc2ccc(Cl)cc2)C1=O` [Example 185, (3R)-3-amino-5-[(4-chlorophenyl)methyl]-8-fluoro-1,1-dioxo-7-[5-(1,1,2,2,2-pentafluoroethyl)-1,3,4-oxadiazol-2-yl]-2,3-dihydro-1λ^6,5-benzothiazepin-4-one], for which the Emax in the assay with primary human T-cells [1] came out at 13%. Also, the values for the EC50 with primary human T-cells [1] and in the assay with primary human T-cells [2] were more than 10000 nM and 4930 nM, respectively.

`CC(C)(CO)c1nnc(-c2cc3c(cc2F)S(=O)(=O)C[C@H](N)C(=O)N3Cc2ccc(C#N)cc2)o1` [Example 188, 4-[[(3R)-3-amino-8-fluoro-7-[5-(2-hydroxy-1,1-dimethyl-ethyl)-1,3,4-oxadiazol-2-yl]-1,1,4-trioxo-2,3-dihydro-1λ^6,5-benzothiazepin-5-yl]methyl]benzonitrile]: in the assay with primary human T-cells [1], the Emax worked out at 29% and the EC50 is more than 10000 nM. Besides, in the assay on primary human T-cells [2], the EC50 is 3180 nM.

As to `CC(C)(C)c1nnc(-c2cc3c(cc2F)S(=O)(=O)C[C@H](N)C(=O)N3Cc2ccc(OCCCCCCCCCCCNC(=O)CCC3=CC4=Cc5ccc(-c6ccc[nH]6)n5[B-](F)(F)[N+]4=C3)cc2)o1` [Example 189, 3-[2,2-difluoro-12-(1H-pyrrol-2-yl)-1-aza-3-azonia-2-boranuidatricyclo[7.3.0.03,7]dodeca-3,5,7,9,11-pentaen-5-yl]-N-[11-[4-[[(3R)-3-amino-7-(5-tert-butyl-1,3,4-oxadiazol-2-yl)-8-fluoro-1,1,4-trioxo-2,3-dihydro-1λ^6,5-benzothiazepin-5-yl]methyl]phenoxy]undecyl]propanamide], in the assay on primary human T-cells [1], the Emax is 134% and the EC50 came to 680 nM. In the assay with primary human T-cells [2], this compound had an EC50 of more than 2730 nM.

As for `C[C@@H]1[C@H](N)C(=O)N(Cc2ccc(Cl)cc2)c2cc(-c3nnc(C(C)(C)C)o3)c(F)cc2S1(=O)=O` [Example 190, (2R,3R)-3-amino-7-(5-tert-butyl-1,3,4-oxadiazol-2-yl)-5-[(4-chlorophenyl)methyl]-8-fluoro-2-methyl-1,1-dioxo-2,3-dihydro-1λ^6,5-benzothiazepin-4-one], in the assay with primary human T-cells [1], the Emax came to 114% and the EC50 stood at 1160 nM. Besides, in the assay with primary human T-cells [2], the EC50 worked out at 1640 nM.

With `N[C@H]1CS(=O)(=O)c2cc(F)c(-c3nnc(N4CCC4)o3)cc2N(Cc2ccc(Cl)cc2)C1=O` [Example 191, (3R)-3-amino-7-[5-(azetidin-1-yl)-1,3,4-oxadiazol-2-yl]-5-[(4-chlorophenyl)methyl]-8-fluoro-1,1-dioxo-2,3-dihydro-1λ^6,5-benzothiazepin-4-one], the Emax in the assay on primary human T-cells [1] was 184%. Moreover, the EC50 with primary human T-cells [1] stood at 1280 nM; with primary human T-cells [2] it was 11400 nM.

`N[C@H]1CS(=O)(=O)c2cc(F)c(-c3noc(N4CCOC5CC54)n3)cc2N(Cc2ccc(Cl)cc2)C1=O` (stereo partly drawn) [Example 192, (3R)-3-amino-5-[(4-chlorophenyl)methyl]-8-fluoro-7-[5-(2-oxa-5-azabicyclo[4.1.0]heptan-5-yl)-1,2,4-oxadiazol-3-yl]-1,1-dioxo-2,3-dihydro-1λ^6,5-benzothiazepin-4-one]: in the assay on primary human T-cells [1], the Emax is 110% and the EC50 was determined as 100 nM. This compound also had an EC50 in the assay on primary human T-cells [2] of 125 nM.

Take `N[C@H]1CS(=O)(=O)c2cc(F)c(-c3noc(N4CCOC(C(F)(F)F)C4)n3)cc2N(Cc2ccc(Cl)cc2)C1=O` (stereo partly drawn) [Example 193, (3R)-3-amino-5-[(4-chlorophenyl)methyl]-8-fluoro-1,1-dioxo-7-[5-[2-(trifluoromethyl)morpholin-4-yl]-1,2,4-oxadiazol-3-yl]-2,3-dihydro-1λ^6,5-benzothiazepin-4-one]: the Emax in the assay on primary human T-cells [1] was 108%. Further, the EC50 with primary human T-cells [1] amounted to 21.3 nM; in the assay with primary human T-cells [2], 38.7 nM.

For the origin of these results see US20240368150A1 (Hoffmann-La Roche Inc., priority 2021, published 2024).
